Results as given in patent US10875874B2, “Ginkgolide B derivative and preparation method and use thereof” (Chengdu Baiyu Ginkgolide Pharmaceuticals Co., Ltd., priority 2015, dated 2020).
Converted amounts (≈) assume the structure as drawn. Marks after values point to notes of the source that are not given here.

Key:
[1] = Weekly food intake of SHR rats; assay type: in vivo, rat
Experimental: (§1) 2.1 Grouping and administration of animals: 112 SHR rats (the female and male SHR rats are half and half, and the female rats are not pregnant) with the body weight of 200-250 g are taken, the rats are enabled to adapt to a laboratory for a period of 5 d, blood pressure is measured once at a day to enable the rats to adapt to the environment and detect stimulation. Then, weighing and numbering are carried out, and the SHR rats are equally divided into 14 groups randomly (each group comprises 8 rats), i.e., an SHR rat model control group, a positive control group (captopril, 27 mg/kg), a BZ large-dose group (120 mg/kg/d), a BZ small-dose group (60 mg/kg/d), a BA large-dose group (120 mg/kg/d), a BA small-dose group (60 mg/kg/d), a BL large-dose group (120 mg/kg/d), a BL small-dose group (60 mg/kg/d), a BM large-dose group (120 mg/kg/d), a BM small-dose group (60 mg/kg/d), a BD large-dose group (120 mg/kg/d), a BD small-dose group (60 mg/kg/d), a GB large-dose group (120 mg/kg/d) and a GB small-dose group (60 mg/kg/d). In addition, 8 healthy Wistar rats are taken as a normal control group. Intragastric administration is performed on the rats of each drug group separately according to the above-mentioned doses by 1 mL/100 g body weight, intragastric administration is performed on the rats of the normal control group and the rats of the SHR rat model control group with an equal volume of distilled water, and administration is performed continuously for 8 weeks.
(§2) 2.2 General state: during observation, conditions such as mind, water drinking, food intake, bowel movement, hair color, body weight and range of motion of rats are observed. Irritable degrees of the rats are divided into III levels: a level I means that the rats are free of obvious response when necks of the rats are seized; a level II means that the rats scream and startle when the necks of the rats are seized; and a level III means that the rats bite or rats of same cages frequently fight when the necks of the rats are seized.
(§3) 3.1 Influence on general state of spontaneously hypertensive rats: the rats of the normal control group are normal in food intake, drinking and motion conditions, sensitive in response, healthy and glossy in hair color, good in mental state and free of any unusual response; the rats of the SHR model group gradually present that back hair is fluffy, clustered and dim, the appetite is reduced, the body weight is reduced, the mind is dispirited and irritable, and the rats are prone to the behaviors of intense resisting, attacking and so on during administration and blood pressure detection, and irritable degrees are mostly changed to a level II and a level III from a level I; and after single administration of ginkgolide B and derivatives thereof, behavioral general state observations of rats of each group are free of obvious difference from those of the model control group.

[2] = Weekly body weight of SHR rats; assay type: in vivo, rat
Experimental: as §1, §2, §3

[3] = system: spontaneously hypertensive rats (SHR); assay: Caudal artery systolic pressure of spontaneously hypertensive rats, single administration; assay type: in vivo, rat; settings: x ± s, n = 8
Experimental: as §1
(§4) 2.3 Blood pressure measuring: caudal artery systolic pressure of rats is measured with a Bp-6 noninvasive blood pressure measuring system. Under the condition that the rats are calm, the systolic pressure is continuously measured for 3 times, and the average value of the measured systolic pressure is taken as a pressure measuring result. Observation indexes: (1) single-administration pressure lowering effect: blood pressure of the rats is measured before administration and blood pressure conditions are measured 30 min, 60 min, 90 min and 120 min after first administration; and (2) continuous-administration pressure lowering condition: blood pressure is separately measured 30 min after administration at 1 d, 7 d, 13 d, 19 d, 25 d, 35 d, 49 d and 56 d, the blood pressure is repeatedly measured for 3 times at a day, and the average value of obtained values is taken as a final blood pressure value.

[4] = system: spontaneously hypertensive rats (SHR); assay: Caudal artery systolic pressure of spontaneously hypertensive rats, 8 weeks of continuous medication; assay type: in vivo, rat; settings: x ± s, n = 8
Experimental: as §1, §4

[5] = Water solubility test; settings: purified water, thermodynamic from solid
Experimental: Measuring method: samples are ground to obtain fine powder, target compounds are quantitatively weighed, the weighed compounds are added into purified water, and the solubility of the compounds is investigated by ultrasonics.

[6] = 60 mg/kg/d intragastric, week 0
[7] = 60 mg/kg/d intragastric, week 1
[8] = 60 mg/kg/d intragastric, week 2
[9] = 60 mg/kg/d intragastric, week 3
[10] = 60 mg/kg/d intragastric, week 4
[11] = 60 mg/kg/d intragastric, week 5
[12] = 60 mg/kg/d intragastric, week 6
[13] = 60 mg/kg/d intragastric, week 7
[14] = 60 mg/kg/d intragastric, week 8
[15] = 120 mg/kg/d intragastric, week 0
[16] = 120 mg/kg/d intragastric, week 1
[17] = 120 mg/kg/d intragastric, week 2
[18] = 120 mg/kg/d intragastric, week 3
[19] = 120 mg/kg/d intragastric, week 4
[20] = 120 mg/kg/d intragastric, week 5
[21] = 120 mg/kg/d intragastric, week 6
[22] = 120 mg/kg/d intragastric, week 7
[23] = 120 mg/kg/d intragastric, week 8

CC(=O)Oc1ccccc1C(=O)O[C@H]1C(=O)O[C@H]2O[C@]34C(=O)OC5C[C@@H](C(C)(C)C)C21[C@@]53[C@@H](O)[C@@H]1OC(=O)[C@@H](C)[C@@]14O (some centres unmarked) [BA]
Average dairy food intake [1, 6]: 17.9 g/day
Average dairy food intake [1, 7]: 18.6^▴ g/d
Average dairy food intake [1, 8]: 19.8^▴ g/d
Average dairy food intake [1, 9]: 19.6^▴ g/d
Average dairy food intake [1, 10]: 18.9^▴ g/d
Average dairy food intake [1, 11]: 20.7^▴▴ g/d
Average dairy food intake [1, 12]: 22.3^▴▴ g/d
Average dairy food intake [1, 13]: 24.6^▴▴ g/d
Average dairy food intake [1, 14]: 25.5^▴▴ g/d
Average dairy food intake [1, 15]: 18.1 g/day
Average dairy food intake [1, 16]: 19.8^▴ g/d
Average dairy food intake [1, 17]: 20.1^▴▴ g/d
Average dairy food intake [1, 18]: 20.8^▴▴ g/d
Average dairy food intake [1, 19]: 21.6^▴▴ g/d
Average dairy food intake [1, 20]: 23.0^▴▴ g/d
Average dairy food intake [1, 21]: 24.5^▴▴ g/d
Average dairy food intake [1, 22]: 25.9^▴▴ g/d
Average dairy food intake [1, 23]: 27.8^▴▴ g/d
Body weight [2, 6]: 228.5 g
Body weight [2, 7]: 233.6 g
Body weight [2, 8]: 244.8^▴ g
Body weight [2, 9]: 251.4 g
Body weight [2, 10]: 257.3 g
Body weight [2, 11]: 263.7^▴ g
Body weight [2, 12]: 269.6^▴ g
Body weight [2, 13]: 281.8^▴▴ g
Body weight [2, 14]: 292.8^▴▴ g
Body weight [2, 15]: 231.6 g
Body weight [2, 16]: 251.4^▴▴ g
Body weight [2, 17]: 257.6^▴▴ g
Body weight [2, 18]: 264.1^▴▴ g
Body weight [2, 19]: 271.2^▴▴ g
Body weight [2, 20]: 280.6^▴▴ g
Body weight [2, 21]: 291.2^▴▴ g
Body weight [2, 22]: 305.9^▴▴ g
Body weight [2, 23]: 320.4^▴▴ g
Systolic pressure ([3]; 60 mg/kg intragastric single administration, 30 min): 161.36 ± 9.52 mmHg
Systolic pressure ([3]; 60 mg/kg intragastric single administration, 60 min): 159.62 ± 14.25 mmHg
Systolic pressure ([3]; 60 mg/kg intragastric single administration, 90 min): 152.56 ± 11.26 mmHg
Systolic pressure ([3]; 60 mg/kg intragastric single administration, 120 min): 159.87 ± 11.32 mmHg
Systolic pressure ([3]; 60 mg/kg intragastric single administration, before administration): 165.35 ± 11.62 mmHg
Systolic pressure ([3]; 120 mg/kg intragastric single administration, 30 min): 149.69 ± 11.62 mmHg
Systolic pressure ([3]; 120 mg/kg intragastric single administration, 60 min): 155.68 ± 17.35 mmHg
Systolic pressure ([3]; 120 mg/kg intragastric single administration, 90 min): 161.30 ± 15.64 mmHg
Systolic pressure ([3]; 120 mg/kg intragastric single administration, 120 min): 158.25 ± 15.61 mmHg
Systolic pressure ([3]; 120 mg/kg intragastric single administration, before administration): 163.64 ± 10.31 mmHg
Systolic pressure ([4]; 60 mg/kg/d intragastric continuous, 1 d, 30 min after administration): 155.29 ± 10.98 mmHg
Systolic pressure ([4]; 60 mg/kg/d intragastric continuous, 7 d, 30 min after administration): 158.73 ± 13.82 mmHg
Systolic pressure ([4]; 60 mg/kg/d intragastric continuous, 13 d, 30 min after administration): 153.64 ± 9.75 mmHg
Systolic pressure ([4]; 60 mg/kg/d intragastric continuous, 19 d, 30 min after administration): 154.85 ± 9.74 mmHg
Systolic pressure ([4]; 60 mg/kg/d intragastric continuous, 25 d, 30 min after administration): 151.36 ± 10.58 mmHg
Systolic pressure ([4]; 60 mg/kg/d intragastric continuous, 35 d, 30 min after administration): 153.72 ± 13.68 mmHg
Systolic pressure ([4]; 60 mg/kg/d intragastric continuous, 49 d, 30 min after administration): 151.70 ± 13.10 mmHg
Systolic pressure ([4]; 60 mg/kg/d intragastric continuous, 56 d, 30 min after administration): 153.72 ± 12.54 mmHg
Systolic pressure ([4]; 60 mg/kg/d intragastric continuous, before administration): 165.35 ± 11.62 mmHg
Systolic pressure ([4]; 120 mg/kg/d intragastric continuous, 1 d, 30 min after administration): 151.48 ± 9.85 mmHg
Systolic pressure ([4]; 120 mg/kg/d intragastric continuous, 7 d, 30 min after administration): 150.95 ± 9.68 mmHg
Systolic pressure ([4]; 120 mg/kg/d intragastric continuous, 13 d, 30 min after administration): 145.30 ± 11.62 mmHg
Systolic pressure ([4]; 120 mg/kg/d intragastric continuous, 19 d, 30 min after administration): 142.39 ± 12.49 mmHg
Systolic pressure ([4]; 120 mg/kg/d intragastric continuous, 25 d, 30 min after administration): 145.84 ± 11.46 mmHg
Systolic pressure ([4]; 120 mg/kg/d intragastric continuous, 35 d, 30 min after administration): 143.67 ± 115.62 mmHg
Systolic pressure ([4]; 120 mg/kg/d intragastric continuous, 49 d, 30 min after administration): 140.69 ± 14.72 mmHg
Systolic pressure ([4]; 120 mg/kg/d intragastric continuous, 56 d, 30 min after administration): 139.88 ± 13.04 mmHg
Systolic pressure ([4]; 120 mg/kg/d intragastric continuous, before administration): 163.64 ± 10.31 mmHg
solubility [5]: 220 µg/mL (≈ 375 µM)
